Source: PMC4849045, “Hepatoprotective Limonoids from Andiroba (Carapa guianensis)” (International Journal of Molecular Sciences, 2016)
Read-outs that look alike come from different tables or passages of the source.

Key:
L929 cells = experiment: TNF-α-induced cytotoxicity in L929 cells (MTT assay); assay type: cell-based; details: Mus musculus; for inhibition at 1 µM / inhibition at 3 µM / inhibition at 10 µM / inhibition at 30 µM: read-out: Inhibition (%) of TNF-α-induced cytotoxicity; for IC50: read-out: IC50, inhibition of TNF-α-induced decrease in cell viability
Experimental: The effects of the limonoids (1–17) on the sensitivity of hepatocytes to TNF-α were assessed by measuring TNF-α-induced decreases in the viability of L929 cells, a TNF-α-sensitive cell line, by using the MTT assay. In the absence of a test sample, the cells incubated with 1 ng/mL TNF-α for 44 h were compared with those not incubated with TNF-α.
Assay for the TNF-α-induced cytotoxicity in L929 cells was performed as described previously. Silybin was used as a reference compound [36].

[1] = tested on: LPS-activated NO production in mouse peritoneal macrophages; experiment: LPS-induced NO production in mouse peritoneal macrophages; assay type: cell-based; details: Peritoneal macrophage; for inhibition at 3 µM / inhibition at 10 µM / inhibition at 30 µM / inhibition at 100 µM: read-out: Inhibition (%) of LPS-activated NO production; for IC50: read-out: IC50, inhibition of LPS-activated NO production
Experimental: The effects of limonoids (1–17) on NO production were examined to provide an estimation of macrophage activation levels in LPS-treated mouse peritoneal macrophages.
Assay for NO production in TGC-induced mouse peritoneal macrophages was performed as described previously. N^G-Monomethyl-L-arginine (L-NMMA) and caffeic acid phenethyl ester (CAPE) were used as reference compounds [33, 36].

[2] = tested on: primary cultured mouse hepatocytes; experiment: D-GalN-induced cytotoxicity in primary cultured mouse hepatocytes (MTT assay); details: Hepatocyte, read-out: Inhibition (%) of D-GalN-induced cytotoxicity
Experimental: Assay for the D-GalN-induced cytotoxicity in primary cultured mouse hepatocytes was performed as described previously [33, 35, 36].

[3] = Cell viability of LPS-treated mouse peritoneal macrophages (MTT assay); assay type: cell-based
[4] = L929, 1 µM, 1 ng/mL TNF-α, 44 h, mean ± S.E.M. (n = 4)
[5] = L929, 3 µM, 1 ng/mL TNF-α, 44 h, mean ± S.E.M. (n = 4)
[6] = L929, 10 µM, 1 ng/mL TNF-α, 44 h, mean ± S.E.M. (n = 4)
[7] = L929, 30 µM, 1 ng/mL TNF-α, 44 h, mean ± S.E.M. (n = 4)
[8] = Mus musculus, 3 µM, mean ± S.E.M. (n = 4)
[9] = Mus musculus, 10 µM, mean ± S.E.M. (n = 4)
[10] = Mus musculus, 30 µM, mean ± S.E.M. (n = 4)
[11] = Mus musculus, 100 µM, mean ± S.E.M. (n = 4)
[12] = LPS-treated TGC-induced mouse peritoneal macrophages, 3 µM, mean ± S.E.M. (n = 4), read-out: cell viability (%) in MTT assay (values in parentheses) (converted)
[13] = LPS-treated TGC-induced mouse peritoneal macrophages, 10 µM, mean ± S.E.M. (n = 4), read-out: cell viability (%) in MTT assay (values in parentheses) (converted)
[14] = LPS-treated TGC-induced mouse peritoneal macrophages, 30 µM, mean ± S.E.M. (n = 4), read-out: cell viability (%) in MTT assay (values in parentheses) (converted)
[15] = LPS-treated TGC-induced mouse peritoneal macrophages, 100 µM, mean ± S.E.M. (n = 4), # = cytotoxic effects were observed, read-out: cell viability (%) in MTT assay (values in parentheses) (converted)
[16] = L929 cells, 1 ng/mL TNF-α, 44 h
[17] = 3 µM, mean ± S.E.M. (n = 4), read-out: cell viability (%) in MTT assay (values in parentheses) (converted)
[18] = 10 µM, mean ± S.E.M. (n = 4), read-out: cell viability (%) in MTT assay (values in parentheses) (converted)
[19] = 30 µM, mean ± S.E.M. (n = 4), read-out: cell viability (%) in MTT assay (values in parentheses) (converted)
[20] = 100 µM, mean ± S.E.M. (n = 4), # = cytotoxic effects were observed, read-out: cell viability (%) in MTT assay (values in parentheses) (converted)

| SMILES | inhibition at 3 µM (L929 cells; [5]) | inhibition at 10 µM (L929 cells; [6]) | inhibition at 30 µM (L929 cells; [7]) | inhibition at 3 µM [1, 8] | inhibition at 10 µM [1, 9] | inhibition at 30 µM [1, 10] | inhibition at 100 µM [1, 11] | IC50 ([1]; mouse peritoneal macrophages) | inhibition at 3 µM [2] | inhibition at 10 µM [2] | inhibition at 30 µM [2] | inhibition at 100 µM [2] | viability at 3 µM [3, 12] | viability at 10 µM [3, 13] | viability at 30 µM [3, 14] | viability at 100 µM [3, 15] | IC50 ([1]; Mus musculus) | inhibition at 3 µM ([1]; Mus musculus) | inhibition at 10 µM ([1]; Mus musculus) | inhibition at 30 µM ([1]; Mus musculus) | further results |
| --- | --- | --- | --- | --- | --- | --- | --- | --- | --- | --- | --- | --- | --- | --- | --- | --- | --- | --- | --- | --- | --- |
| CC(=O)O[C@@H]1C2C(C)(C)C(=O)C=C[C@]2(C)C2CC[C@@]3(C)[C@H](c4ccoc4)OC(=O)[C@H]4O[C@]43[C@]2(C)[C@@H]1O (stereo partly shown) [compound 5, andirolide H] | -0.7 ± 1.2% | 7.6 ± 1.1% | 39.2 ± 1.7% | 5.8 ± 6.1% | 63.9 ± 3% | 97.2 ± 0.9% | 99.7 ± 0.5% | 9.4 µM | -6.2 ± 2.6% | -9 ± 0.5% | -9.2 ± 0.8% | -0.6 ± 0.8% | 99.8% | 104% | 109% | 4.9% | – | – | – | – | inhibition at 1 µM (L929 cells; [4]): -6.6 ± 3.6% |
| CC(=O)O[C@@H]1CC2C(C)(C)C(=O)C=C[C@]2(C)C2CC[C@]3(C)C(=CC(=O)[C@@]3(O)c3ccoc3)[C@@]21C (stereo partly drawn) [compound 9, 17β-hydroxyazadiradione] | – | – | – | – | – | – | – | – | 15.3 ± 2.3% | -4.1 ± 1.2% | -7.5 ± 1.4% | -7.5 ± 4% | – | – | – | – | 20.3 µM | -10.4 ± 6.8% | 9.4 ± 7.1% | 65.1 ± 4.5% | inhibition at 1 µM (L929 cells; L929, 44 h): 14.1 ± 3.4%; inhibition at 3 µM (L929 cells; L929, 44 h): 23.9 ± 3.9%; inhibition at 10 µM (L929 cells; L929, 44 h): 64 ± 3.3%; inhibition at 30 µM (L929 cells; L929, 44 h): 91.3 ± 8.2%; IC50 (L929 cells; [16]): 6.9 µM; inhibition at 100 µM ([1]; Mus musculus): 97.4 ± 0.7%; viability at 3 µM [3]: 95.4%; viability at 10 µM [3]: 94.4 ± 14.1%; viability at 30 µM [3]: 94.8%; viability at 100 µM [3]: 84.8% |
| CC(=O)O[C@@H]1C[C@H]2C(C)(C)C(=O)C=C[C@]2(C)[C@H]2CC[C@@]3(C)[C@H](c4ccoc4)C(=O)[C@H]4O[C@]43[C@@]21C [compound 8, epoxyazadiradione] | – | – | – | 10.5 ± 0.9% | 56 ± 4% | 103 ± 4% | 112.3 ± 0.7% | 8.2 µM | -3.1 ± 8.9% | -2.2 ± 2.5% | -10.8 ± 0.6% | -11.9 ± 0.3% | – | – | – | – | – | – | – | – | IC50 (L929 cells; L929, 44 h): 10.2 µM; inhibition at 3 µM (L929 cells; L929, 44 h): 13.7 ± 3.9%; inhibition at 10 µM (L929 cells; L929, 44 h): 39.1 ± 6.5%; inhibition at 30 µM (L929 cells; L929, 44 h): 91.5 ± 11.4%; viability at 3 µM [3, 17]: 99.6%; viability at 10 µM [3, 18]: 94.8%; viability at 30 µM [3, 19]: 81.9%; viability at 100 µM [3, 20]: 10% |
| CCC(=O)OC1C2(OC(C)=O)C(OC(C)=O)C3(C)CC24OC2(C)OC15C(CC(=O)OC)C1(C)CC(c6occc6C1=O)C5(O2)C41COC(=O)CC31 (stereo not shown) [compound 16, guianolide A] | -6.2 ± 5.2% | -4.5 ± 1.9% | -7.3 ± 3% | – | – | – | – | – | 9.2 ± 4.2% | 11 ± 5.3% | 9.8 ± 2.8% | 23.5 ± 3.5% | 96.9% | 102% | 98.7% | 106% | 77.9 µM | 1.9 ± 3.2% | 3.2 ± 1.4% | 12.7 ± 1.6% | inhibition at 100 µM ([1]; Mus musculus): 71.3 ± 3.2% |
| CCC(=O)OC1C2(O)C(OC(C)=O)C3(C)CC24OC2(C)OC15C1CC(=O)OC(c6ccoc6)C1(C)C(OC(C)=O)C(O)C5(O2)C4(C)C3CC(=O)OC (stereo not shown) [compound 13, Carapanolide M] | -1.5 ± 7.1% | 7 ± 4.4% | -5.1 ± 6.2% | – | – | – | – | – | -7 ± 0.5% | -7.3 ± 0.7% | 1 ± 0.4% | -9.9 ± 1% | – | – | – | – | 41.6 µM | -1.1 ± 2.7% | 3.2 ± 2.8% | 30.3 ± 3.1% | inhibition at 100 µM ([1]; Mus musculus): 85.1 ± 1.5%; viability at 3 µM [3, 17]: 99.2%; viability at 10 µM [3, 18]: 95.1%; viability at 30 µM [3, 19]: 94.2%; viability at 100 µM [3, 20]: 112% |
| COC(=O)C(OC(C)=O)C1C2(C)CC34OC5(C)OC6(C7CC(=O)OC(c8ccoc8)C7(C)C(OC(C)=O)C(O)C6(O5)C13C)C(OC(=O)C(C)C)C4(O)C2OC(C)=O (stereo not shown) [compound 15, Carapanolide O] | – | – | – | -2.5 ± 5.4% | 14.7 ± 8.2% | 6.9 ± 5% | 102 ± 3.2% | 46 µM | 7.5 ± 3.9% | -5.3 ± 5.6% | -5.2 ± 3.9% | -2.1 ± 1.7% | – | – | – | – | – | – | – | – | inhibition at 3 µM (L929 cells; L929, 44 h): 6.3 ± 4.3%; inhibition at 10 µM (L929 cells; L929, 44 h): 1 ± 6.4%; inhibition at 30 µM (L929 cells; L929, 44 h): 1.5 ± 4.1%; viability at 3 µM [3, 17]: 104%; viability at 10 µM [3, 18]: 108%; viability at 30 µM [3, 19]: 107%; viability at 100 µM [3, 20]: 109% |
| CCC(C)C(=O)OC1C2(OC(C)=O)CC3(O)C4=CC(=O)OC(c5ccoc5)C4(C)CCC3C(C)(C2=O)C(CC(=O)OC)C1(C)C (stereo not shown) [compound 10, Carapanolide C] | 14.2 ± 3.2% | 27.7 ± 4.3% | 54.5 ± 5.5% | 4.2 ± 8.8% | 20.8 ± 5% | 20.2 ± 4.9% | 13.2 ± 1.9% | > 100 µM | 8 ± 4.3% | 3.4 ± 4.2% | 6.7 ± 2.1% | -7.7 ± 4.4% | 96% | 98.9% | 91.8% | 80% | – | – | – | – | inhibition at 1 µM (L929 cells; [4]): 4.9 ± 2.1%; IC50 (L929 cells; [16]): 27 µM |
| CCC(=O)OC1C2(O)C(OC(C)=O)C3(C)CC24OC2(C)OC15C1CC(=O)OC(c6ccoc6)C1(C)C(OC(C)=O)CC5(O2)C4(C)C3C(OC(C)=O)C(=O)OC (stereo not shown) [compound 14, Carapanolide Q] | 8.6 ± 4.4% | 1.3 ± 4.2% | 9.2 ± 2.5% | – | – | – | – | – | 2.7 ± 1.9% | -3.5 ± 2.9% | -2.5 ± 2.1% | -6.2 ± 1.7% | 99.8% | 96.3% | 95.5% | 116% | 38 µM | 1.9 ± 0.7% | 14.4 ± 2.2% | 44.3 ± 1.1% | inhibition at 100 µM ([1]; Mus musculus): 75.3 ± 3.5% |
| COC(=O)CC1C(C)C(=O)C2(CC3(O)C4CC(=O)OC(c5ccoc5)C4(C)CCC3(O)O2)C(OC(=O)C(C)C)C1(C)C (stereo not shown) [compound 17, carapanolide A] | 8.8 ± 6.5% | 21.5 ± 5.5% | 58.2 ± 4.7% | -0.6 ± 2.1% | 1.2 ± 2% | 41.1 ± 1% | 4.9 ± 1.8% | > 100 µM | -6.8 ± 1.2% | -8.3 ± 0.7% | -4.5 ± 0.6% | -7 ± 0.6% | 103% | 104% | 110% | 91.3% | – | – | – | – | IC50 (L929 cells; [16]): 25.3 µM |
